The source of these data is PubChem BioAssay (NCI).

Among the test systems are EKVX NSCLC; HCT-116 colon; KM12 colon; NCI-H226 lung; NCI-H460 lung; RPMI-8226 leukemia; SF-539 CNS; SK-MEL-28 melanoma; SNB-19 CNS; SNB-75 CNS.
Holding throughout (test): NCI-60 cell line screen, 48 h

Each structure is given as a SMILES string.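 Each compound was tested at five concentrations against cells in 96-well plates for 48 hours. The concentration for full growth arrest is given as TGI.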

As to `CC(C)(C)c1cc2c(O)c(c1)Cc1cc(C(C)(C)C)cc(c1O)Cc1cc(C(C)(C)C)cc(c1O)Cc1cc(C(C)(C)C)cc(c1O)Cc1cc(C(C)(C)C)cc(c1O)Cc1cc(C(C)(C)C)cc(c1O)Cc1cc(C(C)(C)C)cc(c1O)Cc1cc(C(C)(C)C)cc(c1O)C2`, the TGI in the assay with EKVX NSCLC, in the assay with HCT-116 colon, in the assay with KM12 colon, in the assay on NCI-H226 lung, with NCI-H460 lung and with RPMI-8226 leukemia was greater than 50 µM in each case. Besides, the TGI in the assay with SF-539 CNS, in the assay with SK-MEL-28 melanoma, with SNB-19 CNS and with SNB-75 CNS was greater than 50 µM throughout.
Turning to `COc1cc(C2C(Cl)C(=O)N2NC(=O)c2ccc(N)cc2)cc(Br)c1O` (stereo not drawn), the TGI in the assay with EKVX NSCLC is 31 µM; in the assay on HCT-116 colon it was 22.3 µM; in the assay with KM12 colon, 30.7 µM; in the assay on NCI-H226 lung, 46.2 µM; in the assay on NCI-H460 lung, 31.4 µM; in the assay on RPMI-8226 leukemia it was 51.5 µM. The TGI in the assay on SF-539 CNS is 35.2 µM; in the assay on SK-MEL-28 melanoma it was 31.6 µM; in the assay with SNB-19 CNS it was 24 µM; in the assay with SNB-75 CNS it was 33.3 µM.
Consider `Brc1ccc2c(c1)-c1nc3nc4c(cc3cc1CC2)CCc1ccc(Br)cc1-4`, for which the TGI in the assay on EKVX NSCLC, with HCT-116 colon, in the assay with KM12 colon, with NCI-H226 lung, in the assay on NCI-H460 lung and in the assay with RPMI-8226 leukemia was greater than 100 µM throughout. Further, the TGI in the assay on SF-539 CNS, in the assay on SK-MEL-28 melanoma, in the assay with SNB-19 CNS and with SNB-75 CNS was greater than 100 µM each time.
With `O=C(O)c1ccc(C2SCc3nc4ccccc4n32)cc1` (stereo not drawn), the TGI in the assay with EKVX NSCLC, with HCT-116 colon, in the assay on KM12 colon, in the assay with NCI-H226 lung, in the assay with NCI-H460 lung and in the assay on RPMI-8226 leukemia was greater than 100 µM in each case. Further, the TGI in the assay with SF-539 CNS, with SK-MEL-28 melanoma, with SNB-19 CNS and with SNB-75 CNS was greater than 100 µM throughout.
Consider `COc1ccc(/C=C2\CCC/C(=C\c3ccc(O)c(CN4CCCCC4)c3)C2=O)cc1`, for which the TGI was 51.7 µM in the assay with EKVX NSCLC; 13.1 µM in the assay on HCT-116 colon; 45.8 µM with NCI-H226 lung; 44.8 µM in the assay with NCI-H460 lung; greater than 43.8 µM with RPMI-8226 leukemia; 16.1 µM with SF-539 CNS. Also, the figures for the TGI in the assay with SK-MEL-28 melanoma, in the assay on SNB-19 CNS and in the assay with SNB-75 CNS were 42.2 µM, 70.2 µM and greater than 71.8 µM, respectively.
As to `COc1cc(-c2[o+]c3cc(O)cc(O)c3cc2O)cc(O)c1O`, the TGI in the assay on EKVX NSCLC, in the assay on HCT-116 colon, in the assay on KM12 colon, in the assay with NCI-H226 lung, with NCI-H460 lung and with RPMI-8226 leukemia was greater than 100 µM throughout. The TGI with SF-539 CNS, with SK-MEL-28 melanoma, in the assay with SNB-19 CNS and with SNB-75 CNS was greater than 100 µM in each case.
In the case of `CSC12c3cc(C)n(-c4ccccc4)c3CC(C)(C)CN1C(=O)C2Oc1ccccc1` (stereo not drawn), the TGI with EKVX NSCLC, with HCT-116 colon, in the assay on KM12 colon, with NCI-H226 lung, in the assay on NCI-H460 lung and with RPMI-8226 leukemia was greater than 100 µM each time. Also, the TGI in the assay on SF-539 CNS, in the assay with SK-MEL-28 melanoma, in the assay with SNB-19 CNS and in the assay with SNB-75 CNS was greater than 100 µM throughout.
For the molecule `CCOC1Oc2ccccc2-c2nc(SC)ncc21` (stereo not drawn), the TGI in the assay on EKVX NSCLC, in the assay with HCT-116 colon, in the assay on KM12 colon, in the assay on NCI-H226 lung, with NCI-H460 lung and in the assay on RPMI-8226 leukemia was greater than 100 µM each time. For the same molecule, the TGI in the assay on SF-539 CNS, in the assay on SNB-19 CNS and in the assay on SNB-75 CNS was greater than 100 µM in each case.
Turning to `CCN(CC)Cc1c(/C=C\c2cc(OC)c(OC)c(OC)c2)ccc(OC)c1O`, the TGI with EKVX NSCLC was greater than 93.5 µM; in the assay on HCT-116 colon, 42.7 µM; with KM12 colon, 27.1 µM; with NCI-H226 lung it was 27.3 µM; in the assay on NCI-H460 lung, greater than 100 µM; in the assay on RPMI-8226 leukemia, greater than 100 µM. In addition, the TGI is 9.24 µM in the assay with SF-539 CNS, greater than 100 µM with SK-MEL-28 melanoma, greater than 100 µM in the assay on SNB-19 CNS and 9.49 µM in the assay on SNB-75 CNS.
In the case of `Ic1cc2c(cc1C1SCCCS1)OCO2`, the TGI in the assay with EKVX NSCLC, with HCT-116 colon, in the assay with KM12 colon, with NCI-H226 lung, with NCI-H460 lung and in the assay with RPMI-8226 leukemia was greater than 100 µM throughout. For the same molecule, the TGI in the assay with SF-539 CNS, in the assay on SK-MEL-28 melanoma, in the assay on SNB-19 CNS and with SNB-75 CNS was greater than 100 µM each time.
For the molecule `Nc1nc2c(ncn2Cc2ccccc2CO)c(=O)[nH]1`, the TGI in the assay on EKVX NSCLC, with HCT-116 colon, in the assay with KM12 colon, with NCI-H226 lung, in the assay with NCI-H460 lung and with RPMI-8226 leukemia was greater than 100 µM in each case. Also, the TGI with SF-539 CNS, with SK-MEL-28 melanoma, in the assay with SNB-19 CNS and with SNB-75 CNS was greater than 100 µM each time.
As for `c1ccc2c(c1)CCc1[nH]c3c(c1-2)-c1ccccc1CC3`, the TGI in the assay with EKVX NSCLC, in the assay with HCT-116 colon, in the assay with KM12 colon, in the assay on NCI-H226 lung, with NCI-H460 lung and with RPMI-8226 leukemia was greater than 100 µM throughout. In addition, the TGI with SF-539 CNS, in the assay on SK-MEL-28 melanoma, with SNB-19 CNS and in the assay on SNB-75 CNS was greater than 100 µM throughout.
Consider `COC(=O)[C@H](Cc1ccc(OC(C)(C)C)cc1)N[C@H](C)C(=O)N[C@@H](Cc1ccccc1)C(=O)OCc1ccccc1`, for which the TGI in the assay with EKVX NSCLC, in the assay with HCT-116 colon, with KM12 colon, in the assay on NCI-H226 lung, in the assay with NCI-H460 lung and in the assay with RPMI-8226 leukemia was greater than 100 µM in each case. In addition, the TGI in the assay with SF-539 CNS, in the assay on SK-MEL-28 melanoma, in the assay on SNB-19 CNS and in the assay with SNB-75 CNS was greater than 100 µM throughout.
